One test deals with glycerol-rat model. In words: Acute renal protection in the glycerol rat (haemolytic-uraemic syndrome). The format is in vivo. The settings on record: Group 3: glycerol + 10 mg/kg BW p.o. 8 and 19 h after glycerol injection. The text has this:
B-2. Acute Renal Protection by Partial A1 Agonists in the Glyeriol Rat (Haemolytic-Uraemic Syndrome; Example for Acute Kidney Disorders)
Glycerol-induced haemolysis in rats is an established animal model for investigating haemolysis-induced, acute renal failure with decrease of the individual nephron filtrate and a rapid increase in substances that are usually eliminated in the urine, such as creatinine and urea. Haemolytic uraemia leads to acute blockade of the tubules through protein deposits (“luminal casts”) and finally to degeneration/necrosis of the tubules. At present there is no known curative therapy, i.e. an antidegenerative therapy of structural kidney injury.
Procedure: male Wistar:WU rats (200-220 g) from Charles River received, after withdrawal of water for 14-18 hours, a single subcutaneous injection of a 50% glycerol solution (8 ml/kg body weight) or 0.9% NaCl (controls). The following groups were investigated:
Group 2 Glycerol+placebo (60 g glycerol+100 g water+969 g PEG-400); n=12
Group 3 Glycerol+10 mg/kg BW partial A1 agonist EXAMPLE 1, p.o. in placebo, 8 and 19 hours after glycerol injection; n=8
At the end of the protocol (=24 hours after glycerol intoxication), the following samples were obtained/measurements were carried out: four-hour urine collection with administration of water (10 ml water/kg body weight, p.o.), and TaqMan analyses of renal injury markers in the renal cortex of the right kidney and histological assessment of the “kidney injury score” in the left kidney, by determining the degree of renal damage from the intensity of “luminal casts+tubular necrosis/degeneration”.

The subject of test [1] is 5/6 nephrectomy rat model. In words: Left-ventricular diastolic dysfunction under isoprenaline infusion in 5/6 nephrectomized rats. The format is in vivo. The settings on record: 4 weeks. The text has this:
B-3. Effects of Partial A1 Agonists on Renal and Cardiac Function in 5/6 Nephrectomized Rats (Example 1 for Chronic Kidney Disorder)
5/6 nephrectomy in the rat, in which one kidney and the renal cortex of the second kidney are surgically removed (=5/6 of functional kidney tissue) is an established animal model for interstitial renal fibrosis and chronic renal insufficiency [C. Fleck et al., “Suitability of 5/6 nephrectomy (5/6NX) for the induction of interstitial renal fibrosis in rats Influence of sex, strain, and surgical procedure”, Exp. Tox. Pathology 2006, 57, 195-205]. The model is characterized by progressive proteinuria, disturbed tubular electrolyte transport, a reduced glomerular filtration rate, an increase in urinary output, interstitial fibrosis with reactively occurring lymphocyte infiltrates, glomerulosclerosis and tubular atrophy. The level of proteinuria is a specific index of the renal function prognosis: the higher the proteinuria, the greater is the functional and structural kidney injury and therefore progression of chronic to terminal renal insufficiency (uraemia). During monitoring of therapy, e.g. with the ACE inhibitor enalapril, the course of proteinuria provides information on the functional and structural response to the therapy and thus on the renal function prognosis. As a result of the renal insufficiency and accumulation of umemic toxins, in the animals there is secondary development of a umemic cardiomyopathy, depending on the severity associated with hypertension, increased heart rate, reduced parasympathetic tone, myocardial, left-ventricular hypertrophy and fibrosis, diastolic dysfunction and an increased prevalence of arrhythmias [Svilerova et al. 2010 Physiol Res 59: S81-S88).
Procedure: male Wistar:WU rats (210-250 g) from Charles River had the left kidney and the renal cortex of the right kidney removed (=SNX) in one session; sham-operated rats served as control group (=SOP). The following groups, each with 12 rats per group, were investigated:
Group 2 SNX+placebo (60 g glycerol+100 g water+969 g PEG-400)
Group 3 SNX+10 mg/kg body weight/day enalapril (reference therapy, in the drinking water)
Group 4 SNX+0.1 mg/kg body weight/day partial A1 agonist EXAMPLE 1, p.o. in placebo
Group 5 SNX+1.0 mg/kg body weight/day partial A1 agonist EXAMPLE 1, p.o. in placebo
Group 6 SNX+0.3 mg/kg body weight/day partial A1 agonist EXAMPLE 4, p.o. in placebo
Group 7 SNX+3.0 mg/kg body weight/day partial A1 agonist EXAMPLE 4, p.o. in placebo
Three weeks after 5/6 nephrectomy, the rats developed manifest proteinuria, from this time point the rats were treated for a further four weeks corresponding to the groups stated above. At the end of the protocol, the following samples were obtained/measurements were carried out: eight-hour urine collection with determination of the concentration of hFABP in the urine by ELISA (Rat/Mouse h-FABP ELISA, Hycultbiotech), as marker for end organ damage, invasive measurement of the isoprenaline-induced increase (cumulatively 12.5 ng-250 ng/kg isoprenaline, i.v.) in systolic and diastolic left ventricular function, and TaqMan analyses of renal injury markers in the renal cortex.

This is an account of results in patent US20160311812A1, “ADENOSINE A1 AGONISTS AS MEDICAMENTS FOR KIDNEY DISORDERS” (BAYER PHARMA AKTIENGESELLSCHAFT, priority 2013, published 2016).

Marks after values point to notes of the source that are not given here.

Take `N#Cc1c(N)nc(SCc2csc(-c3ccc(Cl)cc3)n2)c(C#N)c1-c1ccc(OCCO)cc1` [EXAMPLE 1, 2-Amino-6-({[2-(4-chlorophenyl)-1,3-thiazol-4-yl]methyl}sulphanyl)-4-[4-(2-hydroxyethoxy)phenyl]pyridine-3,5-dicarbonitrile]: in the test with glycerol-rat model (24 h after glycerol), the P-creatinine amounted to 52 ± 1 µmol/L. Besides, the P-urea in the test with glycerol-rat model (24 h after glycerol) was 11 ± 0.4*^ mmol/l. In addition, the “Kidney injury marker-1” value in the test on glycerol-rat model (TaqMan, renal cortex) is given as 951 ± 216 rel. expression. Also, the Lipocalin-2 in the test on glycerol-rat model (TaqMan, renal cortex) is on record as 204 ± 23 rel. expression. In addition, the Osteopontin with glycerol-rat model (TaqMan, renal cortex) was determined as 5575 ± 694 rel. expression. In the test with glycerol-rat model (four-hour urine collection), the U-creatinine was 0.2 ± 0.03 μmol/ml urine/kg BW/h. In addition, in the test with glycerol-rat model (four-hour urine collection), the U-protein turned out to be 0.02 ± 0.01 μmol/ml urine/kg BW/h. The U-sodium in the test with glycerol-rat model (four-hour urine collection) is 4 ± 1 μmol/ml urine/kg BW/h. Moreover, in the test on glycerol-rat model (four-hour urine collection), the U-urea stood at 31 ± 6 μmol/ml urine/kg BW/h. Further, in the test on glycerol-rat model (four-hour urine collection), the Urine volume was found to be 6.7 ± 0.6 ml/kg BW/h. For the same compound, in the test on glycerol-rat model (left kidney, luminal casts + tubular necrosis/degeneration), the “Kidney injury score (histo)” value stood at 1.12. Further, the “left-ventricular pressure decrease as a function of time” value is 6769 ± 206 mmHg/s in test [1] (isoprenaline 0 ng/kg body weight, Group 4: SNX + 0.1 mg/kg body weight/day p.o.); 6516 ± 334 mmHg/s in test [1] (isoprenaline 0 ng/kg body weight, Group 5: SNX + 1.0 mg/kg body weight/day p.o.); 7990 ± 208 mmHg/s in test [1] (isoprenaline 12.5 ng/kg body weight, Group 4: SNX + 0.1 mg/kg body weight/day p.o.); 7126 ± 283 mmHg/s in test [1] (isoprenaline 12.5 ng/kg body weight, Group 5: SNX + 1.0 mg/kg body weight/day p.o.); 8283 ± 222 mmHg/s in test [1] (isoprenaline 25 ng/kg body weight, Group 4: SNX + 0.1 mg/kg body weight/day p.o.); 7309 ± 285 mmHg/s in test [1] (isoprenaline 25 ng/kg body weight, Group 5: SNX + 1.0 mg/kg body weight/day p.o.). The “left-ventricular pressure decrease as a function of time” value in test [1] (isoprenaline 50 ng/kg body weight, Group 4: SNX + 0.1 mg/kg body weight/day p.o.) came to 8913 ± 282 mmHg/s; in test [1] (isoprenaline 50 ng/kg body weight, Group 5: SNX + 1.0 mg/kg body weight/day p.o.), 7990 ± 213 mmHg/s; in test [1] (isoprenaline 100 ng/kg body weight, Group 4: SNX + 0.1 mg/kg body weight/day p.o.) it was 9701 ± 300 mmHg/s; in test [1] (isoprenaline 100 ng/kg body weight, Group 5: SNX + 1.0 mg/kg body weight/day p.o.), 8722 ± 183 mmHg/s; in test [1] (isoprenaline 250 ng/kg body weight, Group 4: SNX + 0.1 mg/kg body weight/day p.o.), 9721 ± 307 mmHg/s; in test [1] (isoprenaline 250 ng/kg body weight, Group 5: SNX + 1.0 mg/kg body weight/day p.o.), 9028 ± 226 mmHg/s.
